Experiments:
[1] = phase II; patients with chronic obstructive pulmonary disease; cited from earlier work
[2] = test system: immune cells in BALF; assay: Mouse model of LPS-induced acute pulmonary inflammation: immune cell counts in BALF; assay type: in vivo, BALB/c mouse; settings: 1.0 mg/kg intratracheal nebulized, 1 h before LPS; BALF 6 h after modeling; vs. model group
Procedure: (§1) The study utilized a BALB/c mouse model of LPS-induced acute pulmonary inflammation to evaluate the inhibitory effect of the compound on pulmonary inflammation based on immune cell counts and TNFα cytokine levels in bronchoalveolar lavage fluid (BALF). The mice were divided into 6 groups, with 8 mice per group, including: a normal control group, a model control group, an RPL554 group (1.0 mg/kg), and low, medium, and high dose groups of compound A (0.3 mg/kg, 1.0 mg/kg, and 3.0 mg/kg). One hour after intratracheal administration of nebulized drugs, the mice were stimulated by nebulized LPS for modeling. Six hours after modeling, BALF was collected from the animals, and the total cells, the neutrophils, and the eosinophils in BALF were counted, along with the measurement of the pro-inflammatory cytokine TNFα level in BALF.

[3] = test system: TNFα; assay: Mouse model of LPS-induced acute pulmonary inflammation: TNFα level in BALF; assay type: in vivo, BALB/c mouse; settings: 1.0 mg/kg intratracheal nebulized, 1 h before LPS; BALF 6 h after modeling; vs. model group
Procedure: as §1

## COc1cc2c(cc1OC)-c1c/c(=N\c3c(C)cc(C)cc3C)n(CCNC(N)=O)c(=O)n1CC2 [RPL554, 9,10-dimethoxy-2-(2,4,6-trimethylphenylimino)-3-(N-carbamoyl-2-aminoethyl)-3,4,6,7-tetrahydro-2H-pyrimido[6,1-α]isoquinolin-4-one]
[1]
  bronchodilation and symptoms: significantly improve bronchodilation and symptoms
  tolerability, adverse events: well tolerated
[2]
  number of eosinophils in BALF: significantly lower
  number of neutrophils in BALF: significantly lower
  number of total cells in BALF: significantly lower
[3]
  TNFα level in BALF: downward trend

Source: patent EP4609864A1, “PHARMACEUTICAL COMPOSITION CONTAINING ISOQUINOLINONE COMPOUND, AND PREPARATION METHOD THEREFOR” (Jiangsu Hengrui Pharmaceuticals Co., Ltd., priority 2022, dated 2024)
